≈ marks a conversion by molar mass, not a printed value.

From PubChem BioAssay AID1645848 come the findings set out here.

The conditions of the data set: buffer; pH 7.4; 6.0 h; 150.0 µM.
As a reminder, the solubility (kinetic) is solubility judged after dilution from a stock solution rather than from solid. With `C=CC(=O)Nc1cccc(Oc2nc(Nc3ccc(N4CCN(C)CC4)cc3)ncc2Cl)c1`, the solubility (kinetic) was < 1 µg/mL.

Compound `Cc1ccnc(NC(=S)N2CCN(c3cc(Cl)cc(Cl)c3)CC2)c1` registered a kinetic solubility of 2.32 µg/mL (≈ 6.09 µM).

Consider `N#Cc1ccc(S(=O)(=O)Nc2cnccc2C(=O)Nc2nc(-c3ccccc3)cs2)cc1`, for which the kinetic solubility came to 6.96 µg/mL (≈ 15.1 µM). This solubility kinetic lies about 3-fold higher than the previous one.

In turn, `NC(=O)C1CCN(c2ncc(-c3ccc4c(c3)OCO4)s2)CC1` displayed a kinetic solubility of 5.31 µg/mL (≈ 16 µM). The solubility kinetic values of the last two compounds are within 1.5-fold of each other.

`CN(C)C(=O)c1cc2cnc(Nc3ccc(N4CCNCC4)cn3)nc2n1C1CCCC1`: the kinetic solubility was > 64 µg/mL.

Consider `CCCCC(C)/C=C(C)/C=C(\C)C(=O)NC1=CC(O)(/C=C/C=C/C=C/C(=O)NC2=C(O)CCC2=O)C2OC2C1=O` (stereo not drawn), for which the kinetic solubility was > 81 µg/mL.

For the compound `COCCN1CCNc2nc(COc3ccc(C(C)C)cc3)n(Cc3ccccc3)c2C1=O`, the solubility (kinetic) is < 1 µg/mL.

As for `O=C(NC1CCCN(c2cc(-c3ccc(F)cc3)[nH]n2)C1)c1ccc2ncccc2c1` (stereo not drawn), the kinetic solubility came out at 12.5 µg/mL (≈ 30.2 µM).

In turn, `CC(C)Oc1cccc(-c2ccnc(N3CCC(C(N)=O)CC3)n2)c1` had a kinetic solubility of 8.28 µg/mL (≈ 24.3 µM).

As for `Cc1n[nH]c(C)c1CCc1nc2c3ccccc3nc(SCC(=O)Nc3ccc(F)cc3)n2n1`, the solubility (kinetic) was < 1 µg/mL.

`FC(F)(F)c1cccc(N2CCN(C(=S)Nc3cc4ccccc4cn3)CC2)c1`: the kinetic solubility was < 1 µg/mL.

`NC(=O)C1CCN(c2ncc(-c3ccc4c(c3)OCCO4)s2)CC1` displayed a solubility (kinetic) of 4.52 µg/mL (≈ 13.1 µM).

On to `O=S(=O)(Nc1ccc(-c2ccccc2)cc1)c1ccc(NCc2cccc(Cl)c2O)cc1`, for which the kinetic solubility is < 1 µg/mL.

As to `COc1ccc(-c2cc(C)nc3c(-c4ccc(OC)c(OC)c4)c(C)nn23)cc1`, the kinetic solubility is < 1 µg/mL.

With `COc1cc(-c2cc3c(nc2-c2ccccc2)nc(C(=O)NC2CCN(C)CC2)n3C)ccn1`, the solubility (kinetic) is > 67 µg/mL.

Consider `COc1ccc(C2=Nn3c([n+](C)c4ccccc43)SC2)cc1.[Br-]`, for which the solubility (kinetic) was > 46 µg/mL.

`COc1cc(-c2ccnc3c2c(C)nn3-c2cccc(C(F)(F)F)c2)ccc1O` registered a kinetic solubility of 16.5 µg/mL (≈ 41.2 µM).

`NC(=O)C1CCN(c2nc(-c3ccc4c(c3)OCCCO4)cs2)CC1` came in with a kinetic solubility of 34.7 µg/mL (≈ 96.4 µM). This solubility kinetic lies about 2.1-fold higher than the previous one.

As to `CCC(CC)c1cc([C@H]2CN3CC[C@H]2C[C@@H]3CNC(=O)Cc2cccs2)nc(-c2ccncc2)n1`, the kinetic solubility is > 72 µg/mL.

Take `O=C(c1ccccc1)N1CCC(C(=O)N2CCC(N3Cc4ccccc4C3=O)CC2)CC1`: the solubility (kinetic) is > 43 µg/mL.

On to `Cc1ccnc(NC(=S)N2CCN(c3cccc(Cl)c3Cl)CC2)c1`, for which the kinetic solubility was found to be 2.51 µg/mL (≈ 6.58 µM).

`CC(C)(C)c1ccc(-c2csc(N3CCC(C(N)=O)CC3)n2)cc1`: the kinetic solubility was < 1 µg/mL.

`CN(C)c1ccc(S(=O)(=O)N2CCCCC2)cc1NS(=O)(=O)c1ccc2ccccc2c1` had a kinetic solubility of 2.05 µg/mL (≈ 4.33 µM).

Turning to `Cc1ccc(-c2ccc(CNc3nc(-c4ccccc4C(C)C)ncc3C)cc2)cn1`, the solubility (kinetic) is < 1 µg/mL.

On to `O=C(c1ccc2c(c1)ncn2-c1cccc(Cl)c1)N1CCCCC1`, for which the solubility (kinetic) is > 50 µg/mL.

As to `Cc1cc(Nc2ccc(Br)c(C)c2)n2nc(C)nc2n1`, the solubility (kinetic) was 30.9 µg/mL (≈ 93 µM).

For `O=C1CCCC2=C1C(c1[nH]ncc1Cl)N=C(Nc1nc3cc([S+](=O)([O-])N4CCOCC4)ccc3o1)N2` (stereo not drawn), the solubility (kinetic) was > 78 µg/mL.

Turning to `O=C1CCc2cc(S(=O)(=O)Nc3ccc(F)c(Cl)c3)ccc2N1`, the solubility (kinetic) was > 52 µg/mL.

On to `COc1ccc(-c2[nH]nc3ncc(-c4ccc(CO)cc4)nc23)cc1F`, for which the solubility (kinetic) was < 1 µg/mL.

`Cc1cccc([C@H]2[C@@H]3C=CC[C@@H](C)[C@@H]3C(=O)N2Cc2ccccc2)c1`: the solubility (kinetic) is < 1 µg/mL.

Take `O=C(NC(c1ccccc1)c1cc(Cl)c2cccnc2c1O)c1cccnc1` (stereo not drawn): the solubility (kinetic) was < 1 µg/mL.

For `Cc1nnc(-c2ccccc2C(C)C)nc1NCc1ccc(-c2cccnc2)cc1`, the solubility (kinetic) is < 1 µg/mL.

Consider `Cc1ccc(S(=O)(=O)Nc2cc(Cl)ccc2C(=O)Nc2nc(-c3ccccc3)cs2)cc1`, for which the solubility (kinetic) is < 1 µg/mL.

With `O=C(Nc1ccc(S(=O)(=O)Nc2nccs2)cc1)c1ccncc1`, the solubility (kinetic) is 19.5 µg/mL (≈ 54.1 µM).

Consider `Cc1ccc(-n2nc3c(=O)n(CCCC(=O)NC(C)c4ccccc4)nc(C)c3c2C)cc1` (stereo not drawn), for which the kinetic solubility amounted to 4.59 µg/mL (≈ 10.4 µM).

On to `CC1CCc2ccc(F)cc2N1S(=O)(=O)c1cccs1` (stereo not drawn), for which the solubility (kinetic) is 3.12 µg/mL (≈ 10 µM). The solubility kinetic values of the last two compounds are within 1.5-fold of each other.

Consider `Cc1cc(C)cc(NS(=O)(=O)c2ccc3[nH]cc(C(=O)NCc4ccco4)c(=O)c3c2)c1`, for which the kinetic solubility is 2.87 µg/mL (≈ 6.35 µM).

Turning to `Cc1cc(C)nc(NC(=S)N2CCN(c3ccc4nsnc4c3)CC2)c1`, the solubility (kinetic) turned out to be 27.7 µg/mL (≈ 72.1 µM).

For `COc1ccc(-c2csc(CCn3nc(C)c4c(C(F)(F)F)cc(=O)[nH]c43)n2)cc1`, the solubility (kinetic) is < 1 µg/mL.

For the compound `C/C=C1/CN2CC[C@@]34c5ccccc5N(C)[C@@H]3[C@@H]2C[C@@H]1[C@H]4C(=O)OC`, the kinetic solubility is > 33 µg/mL.

Consider `c1ccc(C2=Nn3c(nnc3-c3ccncc3)SC2)cc1`, for which the solubility (kinetic) was determined as 8.9 µg/mL (≈ 30.3 µM).

The compound `CCCc1cc(C)[nH]c(=O)c1CNC(=O)c1cc(-c2ccc(N3CCN(C(C)C)CC3)nc2)cc2c1cnn2C(C)C` yielded a kinetic solubility of 41.1 µg/mL (≈ 72.1 µM). Against the preceding compound, the solubility kinetic is about 4.6-fold higher.

On to `CSc1nnc2c3ccccc3n(CCc3ccccc3)c2n1`, for which the kinetic solubility was < 1 µg/mL.

For `CCOc1ccc(CCNC(=O)c2cc3sccc3n2CCN2CCN(C)CC2)cc1OCC`, the kinetic solubility is > 72 µg/mL.

Regarding `Cc1ccc(S(=O)(=O)Nc2cnccc2C(=O)Nc2nc(-c3ccco3)cs2)cc1`, the solubility (kinetic) is > 65 µg/mL.

On to `c1ccc(CNc2nc(NCc3ccccc3)c3ccccc3n2)cc1`, for which the kinetic solubility was < 1 µg/mL.

`O=S(=O)(Nc1ccccc1)c1ccc(NCc2ccc(Br)cc2O)cc1` registered a solubility (kinetic) of 1.42 µg/mL (≈ 3.27 µM).

With `COc1ccc(Nc2nc(-c3cccc(OC)c3)no2)cc1`, the kinetic solubility is < 1 µg/mL.

In the case of `O=C(Nc1ccc2oc(-c3cccnc3)nc2c1)c1ccc(-c2ccccc2)o1`, the solubility (kinetic) was < 1 µg/mL.

Take `COc1cc(C(=O)Nc2nc(-c3ccccc3)cs2)ccc1NS(=O)(=O)c1ccc(C)cc1`: the solubility (kinetic) is < 1 µg/mL.

`COc1cccc(CNc2ccc(S(=O)(=O)Nc3nccs3)cc2)c1OC` yielded a kinetic solubility of 3.6 µg/mL (≈ 8.88 µM).

Consider `O=C1Nc2cc(Cl)ccc2/C1=C\c1cc(Cl)c(O)c(Cl)c1`, for which the solubility (kinetic) was 5.95 µg/mL (≈ 17.5 µM).

As to `Cc1cc(F)c(C(=O)Nc2cccc(-c3nncn3C(C)C)n2)cc1-n1cnc(C2CC2)c1`, the solubility (kinetic) is 49.8 µg/mL (≈ 112 µM).

Take `Cc1cccc(C)c1C(=O)Nc1cccc([S+](=O)([O-])N(C)C)c1`: the kinetic solubility came out at 41.4 µg/mL (≈ 124 µM). The solubility kinetic values of the last two compounds are within 1.5-fold of each other.

With `Cc1ccc2nc(-c3ccccn3)c(Nc3ccccc3C)n2c1`, the solubility (kinetic) was < 1 µg/mL.

With `CCOc1ccc(NC(=O)c2cccc(-n3cccc3)c2)cc1S(=O)(=O)N1CCOCC1`, the solubility (kinetic) is 3 µg/mL (≈ 6.59 µM).

Consider `COC(=O)c1ccc(Oc2nc3c(c(=O)n(C)c(=O)n3C)n2CCC(C)C)cc1`, for which the solubility (kinetic) is < 1 µg/mL.

Regarding `C[S+](=O)([O-])c1ccc(-c2nc(C(=O)NCc3cccnc3)n3ccccc23)cc1`, the kinetic solubility worked out at 11.4 µg/mL (≈ 27.9 µM).

As for `CCc1ccc(-n2c(=O)c3cccnc3n2CC(=O)Nc2cc(OC)ccc2OC)cc1`, the solubility (kinetic) is < 1 µg/mL.

Regarding `Nc1nc2c(s1)C(c1c(Cl)cccc1Cl)CC(=O)N2` (stereo not drawn), the kinetic solubility was < 1 µg/mL.

For `CCOc1cc(CCNC(=O)c2cc3sccc3n2Cc2ccccc2)cc(F)c1OCC`, the solubility (kinetic) is < 1 µg/mL.

In the case of `CCOc1ccccc1C(=O)NC1CCN(c2cc(C)cc(C)c2)C1=O` (stereo not drawn), the kinetic solubility was 26.8 µg/mL (≈ 75.9 µM).

`Clc1ccc(C2=Nn3c(nnc3-c3ccncc3)SC2)cc1` returned a solubility (kinetic) of 1.45 µg/mL (≈ 4.42 µM). Against the preceding compound, the solubility kinetic is about 18-fold lower.
